Experimental data from patent publication US9315492B2, “Heterocyclic group contained amino-methanol derivative, and salt, synthetic method and use thereof” (BEIJING FORELAND BIOPHARMA CO., LTD., priority 2012, dated 2016).

Experiments:
S1P1 [1] = target: T1, S1P1 (Homo sapiens (Human), UniProt P21453); experiment: S1P1 GTPγS binding assay; assay type: biochemical; details: [35S]-GTPγS, membranes with high-expressed S1P1 (CHO-S1P1)
Description: 1. S1P1GTPγS Binding Assay
2) T-75 cell culture plate; 150 mm cell culture dish
3) DMEM cell culture fluid; 10% (v/v) fetal bovine serum; 100 U/ml penicillin-100 μg/ml streptomycin; 2 mM […], 1 mg/ml G-418
4) Cell Lysis Buffer: HEPES 20 mM (pH 7.4), EDTA 10 mM
5) Stock solution: HEPES 20 mM, EDTA 0.1 mM
6) Binding Buffer; HEPES 20 mM (pH 7.4), NaCl 100 mM, MgCl2 5 mM, GDP 1 μM, BSA 0.1% (w/v), DMSO 2.5% (v/v),
7) Washing solution: NaH2PO4 10 mM (pH 7.4)
The test compounds were dissolved in DMSO and prepared as a concentration of 20 mM.
The concentrations of the compounds were detected ranging from 0.3 nM to 20 μM.
Control group: […] SIP and SEW2871 were used as positive control and were purchased from Tocris company, and the binding buffet was as negative control.
Test method: wetting membranes by saponin solution, and preparing [^35S]-GTPγS in binding solution (4×). The test compound was prepared as 4× of the final concentration which was then performed serial 3× dilution in 100% DMSO. Membranes with high-expressed S1P1 were collected in 5 ml binding buffer, and 50 μL was added to 96-well (containing 5 μg membrane protein with high-expressed S1P1). 25 μL, test compound was added in each well. The compound was incubated with the membranes for 30 min at room temperature, then 25 μL [^35S]-GTPγS was added, and the experiment was initiated. The 96-well detection plate was incubated for 1 hour at room temperature, filtered by filtermat B, and washed with washing solution for three times. After the plate was dried for 1 h at 50° C., 8 ml scintillator solution was added and counted using scintillation counter.
Result Analysis and Determination of 50% Inhibitory Concentration (IC50):
The IC50 value was calculated by using (Prism 4) software, and 50% inhibitory concentrations were obtained.

S1P1 [2] = target: T1, S1P1; experiment: S1P1 β-arrestin assay (PathHunter CHO-K1 EDG1); assay type: cell-based; details: CHO-EDG-1 cells
Description: 2.1 Experimental Materials: Path hunter express CHO-K1 EDG1 β-arrestin GPCR Assay was purchased from DiscoveRx, containing CHO-EDG-1 cells, buffers, substrate-1, substrate-2, cell culture fluid, 96-well cell culture plate.
1) The test compounds were dissolved in DMSO and prepared as a concentration of 20 mM.
2) The concentrations of the test compounds were detected ranging from […] to 20 μM.
4) Assay procedures: OCC culture solution was preheated in water tank at 37° C. Cells were taken out from liquor nitrogen tank, left on the dry-ice, and dissolved in water tank at 37° C. 0.5 ml OCC culture solution was added and blended slowly. The cells were diluted in 11.5 mL OCC culture solution, and 100 μL cell suspension (containing 8333 cells) was added to each well of the 96-well plate. The 96-well plate was incubated for 8 hours under 5% CO2 at 37° C., and 10 μL test compound dissolved in DMSO was added in; 10 μL DMSO was used as negative control. After the plate was incubated for 90 min at 37° C., 55 μL detection solution was added to each well. Then the results were read out by EnVision after the cell plate was incubated for 90 min at room temperature.
The EC50 Value was Calculated by Using Prism 4 Software

[3] = test system: peripheral blood lymphocyte; experiment: Effects on peripheral blood lymphocyte in mice; assay type: in vivo, Balb/c mice; details: intragastric
Description: 3. Effects of the Compounds in Example-21 and Example-22 on Peripheral Blood Lymphocyte in Mice
3.1 Experimental Materials:
1) 15% EDTA, PBS, EP tubes, 15 ml centrifuge tube, capillary tube, pipette tip were all purchased from Shanghai biological technology co., Ltd. Hemocyte analysis reagents were purchased from Shanghai Sysmex Company.
2) 35 Balb/c mice (female, 20-22 g), supplied by laboratory animal center of Jilin University.
3) Automated Hematology Analyzer (pocH-100 iV Diff) was purchased from Sysmex Company, Kobe, Japan.
1) The stock solutions of the compounds obtained in Example-21 and Example-22 were prepared with normal saline, and the concentrations are 2 mg/ml and 20 mg/ml, respectively.
2) The mice were divided into […], i.e., control group, low-dose experimental group, and high-dose experimental group. They were weighed and labeled well.
3) Before administration, supraorbital venous blood was collected with 20 μl/mouse which was added to anticoagulant tube containing EDTA, and nosed thoroughly. The numbers of lymphocytes were analyzed by pocH-100.
4) The control group was given normal saline: low-dose experimental groups were given the compounds obtained in Example-21 and Example-22 (5 mg/kg/d), high-dose experimental groups were given the compounds obtained in Example-21 and Example-22 (30 mg/kg/d), with liquid amount of 500 μl/mouse, by intragastric administration. Administration was performed for continuous four days, once a day. After 3.5 hours of the first and fourth administration, blood was collected respectively, and changes in the numbers of lymphocytes were analyzed by pocH-100.

[4] = test system: autoimmune multiple sclerosis (PLP139-151 immunized mice); experiment: Experimental autoimmune multiple sclerosis; assay type: in vivo; details: SJL/J mice, 5 and 30 mg/kg/d intragastric, 30 days
[5] = test system: experimental rheumatoid arthritis (bovine collagen type II immunized mice); experiment: Experimental rheumatoid arthritis; assay type: in vivo; details: DBA/1JLacJ mice, 5 and 30 mg/kg/d intragastric, 30 days

T1 sequence (P21453 whole entry): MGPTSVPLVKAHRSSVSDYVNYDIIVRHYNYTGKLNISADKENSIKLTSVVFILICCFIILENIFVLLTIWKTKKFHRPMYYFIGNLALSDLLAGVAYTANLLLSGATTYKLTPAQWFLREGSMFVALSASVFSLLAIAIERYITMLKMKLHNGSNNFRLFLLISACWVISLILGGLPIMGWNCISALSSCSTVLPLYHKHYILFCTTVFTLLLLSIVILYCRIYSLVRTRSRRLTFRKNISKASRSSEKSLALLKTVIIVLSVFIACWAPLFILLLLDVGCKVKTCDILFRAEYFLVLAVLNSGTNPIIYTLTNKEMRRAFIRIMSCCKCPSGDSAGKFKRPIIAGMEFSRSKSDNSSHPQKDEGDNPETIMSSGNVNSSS

Compound | IC50 (S1P1 [1]) [nM] | EC50 (S1P1 [2]) [nM] | also measured
COc1ccc(-c2nnc(-c3ccc4c(c3)CC(N)(CO)CC4)o2)cc1C (stereo not drawn) [Example 15, 7-[5-(4-methoxy-3-methylphenyl)-2-1,3,4-oxdiazolyl]-2-amino-1,2,3,4-tetrahydro-naphthalen-2-yl-methanol] | 16 | 27 | 
2-(7-benzylamino-5,6,7,8-tetrahydro-7-naphthalenemethanol)-5-(3-methyl-4-isopropoxy)-1,3,4-oxdiazole [Example 21] | 179 |  | toxicity ([3]; dose up to 30 mg/kg/d, four days): no toxicity effects; behavior and weight of mice, pre- versus post-administration ([3]; four days): no differences; numbers of peripheral blood lymphocyte reduced compared to pre-administration ([3]; once a day for continuous four days): 92%; effect on induction and development of autoimmune multiple sclerosis [4]: obviously inhibiting; effect on induction and development of autoimmune multiple sclerosis ([4]; listed as Example-21): remarkable inhibitory effects; effect on induction and development of experimental rheumatoid arthritis [5]: obviously inhibiting; effect on induction and development of experimental rheumatoid arthritis ([5]; listed as Example-21): remarkable inhibitory effects
Cc1cc(-c2noc(-c3ccc4c(c3)CCC(N)(CO)C4)n2)ccc1OC(C)C (stereo not drawn) [Example 28, 6-[3-(3-methyl-4-isopropoxyphenyl)-5-1,2,4-oxdiazolyl]-2-amino-1,2,3,4-tetrahydro-naphthalen-2-yl-methanol] | 473 |  | 
COCCOc1ccc(-c2nnc(-c3ccc4c(c3)CC(N)(CO)CC4)o2)cc1 (stereo not drawn) [Example 10, 7-{5-[4-(2-methoxyethoxy)phenyl]-2-[1,3,4]oxdiazolyl]-2-amino-1,2,3,4-tetrahydro-naphthalen-2-yl-methanol] | 31.7 | 77 | 
CCNC1(CO)CCc2ccc(-c3nnc(-c4ccc(OC(C)C)c(C)c4)o3)cc2C1 (stereo not drawn) [Example 23, 7-[5-(3-methyl-4-isopropoxyphenyl)-2-1,3,4-oxdiazolyl]-2-ethylamino-1,2,3,4-tetrahydro-naphthalen-2-yl-methanol] | 37.6 |  | 
Cc1cc(-c2nc(-c3ccc4c(c3)CCC(N)(CO)C4)no2)ccc1OC(C)C (stereo not drawn) [Example 30, 6-[5-(3-methyl-4-isopropoxyphenyl)-3-1,2,4-oxdiazolyl]-2-amino-1,2,3,4-tetrahydro-naphthalen-2-yl-methanol] | 749 |  | 
Cc1cc(-c2cn(-c3ccc4c(c3)CCC(N)(CO)C4)nn2)ccc1OC(C)C (stereo not drawn) [Example 32, 6-[4-(3-methyl-4-isopropoxyphenyl)-1-1,2,3-triazolyl]-2-amino-1,2,3,4-tetrahydro-naphthalen-2-yl-methanol] | 125 |  | 
Cc1cc(-c2noc(-c3ccc4c(c3)CC(N)(CO)CC4)n2)ccc1OC(C)C (stereo not drawn) [Example 27, 7-[3-(3-methyl-4-isopropoxyphenyl)-5-1,2,4-oxdiazolyl]-2-amino-1,2,3,4-tetrahydro-naphthalen-2-yl-methanol] | 1.2 | 20 | 
COCCOc1ccc(-c2nnc(-c3ccc4c(c3)CC(N)(CO)CC4)o2)cc1C(F)(F)F (stereo not drawn) [Example 17, 7-{5-[4-(2-methoxyethoxy)-3-trifluoromethylphenyl]-2-1,3,4-oxdiazolyl}-2-amino-1,2,3,4-tetrahydro-naphthalen-2-yl-methanol] | 10.2 |  | 
CC(C)Oc1ccc(-c2nnc(-c3ccc4c(c3)CC(N)(CO)CC4)o2)cn1 (stereo not drawn) [Example 19, 7-[5-(6-isopropoxy-3-pyridyl)-2-[1,3,4]-oxdiazolyl]-2-amino-1,2,3,4-tetrahydronaphthalen-2-yl-methanol] | 61.2 |  | 
CCOc1ccc(-c2nnc(-c3ccc4c(c3)CC(N)(CO)CC4)o2)cc1OCC (stereo not drawn) [Example 20, 7-[5-(3,4-diethoxyphenyl)-2-[1,3,4]-oxdiazolyl]-2-amino-1,2,3,4-tetrahydro-naphthalen-2-yl-methanol] | 179 |  | 
COCCOc1ccc(-c2nnc(-c3ccc4c(c3)CC(N)(CO)CC4)o2)cc1C (stereo not drawn) [Example 18, 7-{5-[4-(2-methoxyethoxy)-3-methylphenyl]-2-1,3,4-oxdiazolyl}-2-amino-1,2,3,4-tetrahydro-naphthalen-2-yl-methanol] | 41.1 |  | 
CC(C)Oc1ccc(-c2nnc(-c3ccc4c(c3)CC(N)(CO)CC4)o2)cc1C(F)(F)F (stereo not drawn) [Example 11, 7-[5-(3-trifluoromethyl-4-isopropoxyphenyl)-2-[1,3,4]oxdiazolyl]-2-amino-1,2,3,4-tetrahydronaphthalen-2-yl-methanol] | 0.4 | 3.1 | 
Cc1cc(-c2nc(-c3ccc4c(c3)CC(N)(CO)CC4)no2)ccc1OC(C)C (stereo not drawn) [Example 29, 7-[5-(3-methyl-4-isopropoxyphenyl)-3-1,2,4-oxdiazolyl]-2-amino-1,2,3,4-tetrahydro-naphthalen-2-yl-methanol] | 0.4 | 9.9 | 
CC(C)Oc1ccc(-c2nnc(-c3ccc4c(c3)CC(N)(CO)CC4)o2)cc1 (stereo not drawn) [Example 16, 7-[5-(4-isopropoxyphenyl)-2-1,3,4-oxdiazolyl]-2-amino-1,2,3,4-tetrahydro-naphthalen-2-yl-methanol] | 46 |  | 
Cc1cc(-c2nnc(-c3ccc4c(c3)CC(CO)(NS(C)(=O)=O)CC4)o2)ccc1OC(C)C (stereo not drawn) [Example 26, N-{2-hydroxymethyl-7-[5-(3-methyl-4-isopropoxyphenyl)-2-1,3,4-oxdiazolyl]-1,2,3,4-tetrahydro-naphthalen-2-yl}methanesulfonamide] | 86 |  | 
Cc1cc(-c2cn(-c3ccc4c(c3)CC(N)(CO)CC4)nn2)ccc1OC(C)C (stereo not drawn) [Example 31, 7-[4-(3-methyl-4-isopropoxyphenyl)-1-1,2,3-triazolyl]-2-amino-1,2,3,4-tetrahydro-naphthalen-2-yl-methanol] | 5 | 14.3 | 
Cc1cc(-c2nnc(-c3ccc4c(c3)CC(CO)(N(C)C)CC4)o2)ccc1OC(C)C (stereo not drawn) [Example 24, 7-[5-(3-methyl-4-isopropoxyphenyl)-2-1,3,4-oxdiazolyl]-2-dimethylamino-1,2,3,4-tetrahydro-naphthalen-2-yl-methanol] | 46 | 354 | 
CC(=O)NC1(CO)CCc2ccc(-c3nnc(-c4ccc(OC(C)C)c(C)c4)o3)cc2C1 (stereo not drawn) [Example 25, N-{2-hydroxymethyl-7-[5-(3-methyl-4-isopropoxyphenyl)-2-1,3,4-oxdiazolyl]-1,2,3,4-tetrahydro-naphthalen-2-yl}acetamide] | 45.5 |  | 
